For one assay, the target named is PIK3CD (Human) (UniProt O00329). As to the kind of experiment: Assessment of PIK3CD Kinase Activity.
The target in the next assay is PIK3CG (human) (UniProt P48736). Kind of assay: Assessment of PIK3CG Kinase Activity.
Another assay concerns the target PIK3CB (Human) (UniProt P42338). As to the kind of experiment: Assessment of PIK3CB Kinase Activity.

Sequence of PIK3CB (Human) (P42338 whole entry, looked up): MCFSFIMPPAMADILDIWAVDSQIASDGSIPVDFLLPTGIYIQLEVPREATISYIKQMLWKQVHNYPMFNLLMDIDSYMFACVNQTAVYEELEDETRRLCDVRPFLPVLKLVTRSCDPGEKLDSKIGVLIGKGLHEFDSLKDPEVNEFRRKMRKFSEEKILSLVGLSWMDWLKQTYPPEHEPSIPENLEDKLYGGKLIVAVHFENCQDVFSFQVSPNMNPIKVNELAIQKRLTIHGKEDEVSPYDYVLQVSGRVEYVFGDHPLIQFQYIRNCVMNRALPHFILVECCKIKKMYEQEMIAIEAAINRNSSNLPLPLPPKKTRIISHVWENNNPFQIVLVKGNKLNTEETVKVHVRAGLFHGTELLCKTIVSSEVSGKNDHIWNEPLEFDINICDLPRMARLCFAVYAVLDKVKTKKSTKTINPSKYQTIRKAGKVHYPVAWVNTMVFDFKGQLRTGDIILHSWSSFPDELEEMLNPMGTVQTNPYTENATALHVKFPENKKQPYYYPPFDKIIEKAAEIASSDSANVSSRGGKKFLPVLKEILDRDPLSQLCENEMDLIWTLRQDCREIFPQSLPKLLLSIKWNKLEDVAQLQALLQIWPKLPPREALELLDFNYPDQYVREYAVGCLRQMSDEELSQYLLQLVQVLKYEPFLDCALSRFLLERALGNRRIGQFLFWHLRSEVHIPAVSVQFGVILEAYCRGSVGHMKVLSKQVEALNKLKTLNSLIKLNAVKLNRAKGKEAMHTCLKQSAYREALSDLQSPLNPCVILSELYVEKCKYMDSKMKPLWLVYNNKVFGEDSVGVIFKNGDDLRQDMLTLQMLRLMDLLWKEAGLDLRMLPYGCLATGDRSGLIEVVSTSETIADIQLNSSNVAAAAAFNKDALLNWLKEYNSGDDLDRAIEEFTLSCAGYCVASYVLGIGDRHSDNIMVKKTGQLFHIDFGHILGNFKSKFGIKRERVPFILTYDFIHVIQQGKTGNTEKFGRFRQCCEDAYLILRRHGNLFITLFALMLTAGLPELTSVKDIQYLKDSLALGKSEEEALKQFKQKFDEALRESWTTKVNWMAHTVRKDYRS
Sequence of PIK3CG (human) (P48736 whole entry, looked up): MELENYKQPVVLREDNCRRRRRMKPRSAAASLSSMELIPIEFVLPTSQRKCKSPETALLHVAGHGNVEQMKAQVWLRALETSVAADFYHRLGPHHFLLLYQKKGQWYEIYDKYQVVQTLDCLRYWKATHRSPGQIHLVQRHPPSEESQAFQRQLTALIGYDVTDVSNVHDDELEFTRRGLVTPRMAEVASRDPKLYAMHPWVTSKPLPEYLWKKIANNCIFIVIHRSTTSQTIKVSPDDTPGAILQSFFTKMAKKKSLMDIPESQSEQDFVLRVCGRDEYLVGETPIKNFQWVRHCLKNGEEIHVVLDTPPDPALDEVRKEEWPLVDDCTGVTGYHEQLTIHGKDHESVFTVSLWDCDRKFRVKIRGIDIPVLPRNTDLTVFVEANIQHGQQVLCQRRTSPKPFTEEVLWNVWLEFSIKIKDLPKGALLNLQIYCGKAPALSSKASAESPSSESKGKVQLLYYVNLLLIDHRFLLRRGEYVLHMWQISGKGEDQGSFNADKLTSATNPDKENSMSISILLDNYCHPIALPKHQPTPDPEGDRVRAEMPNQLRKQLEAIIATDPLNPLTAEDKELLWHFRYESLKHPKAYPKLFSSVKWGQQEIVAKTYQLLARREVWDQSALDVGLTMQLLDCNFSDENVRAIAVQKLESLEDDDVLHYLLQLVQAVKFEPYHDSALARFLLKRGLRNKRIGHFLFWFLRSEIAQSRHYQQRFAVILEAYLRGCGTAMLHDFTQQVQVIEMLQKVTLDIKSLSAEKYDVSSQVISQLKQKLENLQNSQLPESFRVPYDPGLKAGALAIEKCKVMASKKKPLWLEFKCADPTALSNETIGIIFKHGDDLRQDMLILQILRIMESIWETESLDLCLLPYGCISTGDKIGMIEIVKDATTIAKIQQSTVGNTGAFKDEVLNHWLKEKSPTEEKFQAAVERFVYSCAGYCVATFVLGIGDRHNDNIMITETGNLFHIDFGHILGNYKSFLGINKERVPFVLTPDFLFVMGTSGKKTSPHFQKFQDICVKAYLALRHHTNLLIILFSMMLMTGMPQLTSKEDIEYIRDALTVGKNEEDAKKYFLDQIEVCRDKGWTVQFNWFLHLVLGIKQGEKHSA
Sequence of PIK3CD (Human) (O00329 whole entry, looked up): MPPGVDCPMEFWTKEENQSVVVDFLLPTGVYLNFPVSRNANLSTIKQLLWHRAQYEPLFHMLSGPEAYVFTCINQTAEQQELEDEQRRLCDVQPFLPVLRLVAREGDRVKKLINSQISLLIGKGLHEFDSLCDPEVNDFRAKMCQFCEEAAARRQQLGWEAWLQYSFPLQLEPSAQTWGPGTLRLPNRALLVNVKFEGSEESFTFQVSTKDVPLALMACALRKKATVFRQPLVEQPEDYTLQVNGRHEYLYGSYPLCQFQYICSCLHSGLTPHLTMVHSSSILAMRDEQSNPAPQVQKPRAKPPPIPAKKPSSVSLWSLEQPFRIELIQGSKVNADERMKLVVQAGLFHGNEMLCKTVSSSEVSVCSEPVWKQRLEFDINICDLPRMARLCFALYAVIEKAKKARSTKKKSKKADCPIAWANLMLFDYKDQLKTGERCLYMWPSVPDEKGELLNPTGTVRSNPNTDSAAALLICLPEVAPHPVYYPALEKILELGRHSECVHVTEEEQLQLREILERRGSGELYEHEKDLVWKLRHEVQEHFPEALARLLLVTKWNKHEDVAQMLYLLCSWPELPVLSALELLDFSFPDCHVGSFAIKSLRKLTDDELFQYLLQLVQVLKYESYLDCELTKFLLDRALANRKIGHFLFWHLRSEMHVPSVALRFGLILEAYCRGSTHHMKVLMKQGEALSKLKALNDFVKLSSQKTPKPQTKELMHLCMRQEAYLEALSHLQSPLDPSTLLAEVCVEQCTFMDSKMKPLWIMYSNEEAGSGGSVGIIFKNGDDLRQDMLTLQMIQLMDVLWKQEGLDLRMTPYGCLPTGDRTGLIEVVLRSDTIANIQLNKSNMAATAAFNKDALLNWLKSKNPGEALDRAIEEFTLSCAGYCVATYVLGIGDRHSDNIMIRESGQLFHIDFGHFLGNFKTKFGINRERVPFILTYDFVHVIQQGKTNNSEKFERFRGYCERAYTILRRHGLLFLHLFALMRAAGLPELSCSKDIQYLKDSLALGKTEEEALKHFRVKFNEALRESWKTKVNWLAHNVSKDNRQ

For the compound `C[C@H](Nc1ccnn2ccnc12)c1cc2cccc(Cl)c2c(=O)n1-c1cccc(F)c1`, the IC50 is under 100 nM at PIK3CD (Human), under 100 nM on PIK3CG (human) and 100 to 1000 nM against PIK3CB (Human).

For `C[C@H](Nc1ncnc(N)c1C#N)c1cc2cccc(C(F)(F)F)c2c(=O)n1-c1cccc(F)c1`, the IC50 against PIK3CD (Human) was under 100 nM; against PIK3CG (human), under 100 nM; at PIK3CB (Human), 100 to 1000 nM.

Take `C[C@H](Nc1ccnc2ccnn12)c1cc2cccc(Cl)c2c(=O)n1C1CC1`: the IC50 at PIK3CD (Human) is under 100 nM; against PIK3CG (human) it was 100 to 1000 nM; against PIK3CB (Human) it was 100 to 1000 nM.

As to `C[C@H](Nc1ncnc2scnc12)c1cc2cccc(C(F)(F)F)c2c(=O)n1-c1cccc(F)c1`, the IC50 at PIK3CD (Human) is under 100 nM; against PIK3CG (human), under 100 nM; on PIK3CB (Human), 100 to 1000 nM.

On to `C[C@H](Nc1ccnn2ccnc12)c1cc2cccc(Cl)c2c(=O)n1C1CC1`, for which the IC50 at PIK3CD (Human) was under 100 nM; against PIK3CG (human) it was 100 to 1000 nM; against PIK3CB (Human) it was 100 to 1000 nM.

Compound `C[C@H](Nc1ccnc2ccnn12)c1cc2cccc(-c3cnn(C)c3)c2c(=O)n1C1CC1` came in with an IC50 at PIK3CD (Human) of under 100 nM.

Regarding `C[C@H](Nc1ncnc2scnc12)c1cc2scc(C(F)(F)F)c2c(=O)n1-c1ccccc1`, the IC50 on PIK3CD (Human) was under 100 nM; on PIK3CG (human), under 100 nM; against PIK3CB (Human), 100 to 1000 nM.

With `C[C@H](Nc1nc(N)nc2cccnc12)c1cc2cccc(-c3cncnc3)c2c(=O)n1-c1ccccc1`, the IC50 at PIK3CD (Human) and against PIK3CG (human) was under 100 nM throughout.

For `C[C@H](Nc1ccnn2ccnc12)c1cc2scc(Cl)c2c(=O)n1-c1ccccc1`, the IC50 at PIK3CD (Human) was under 100 nM; against PIK3CG (human), under 100 nM; on PIK3CB (Human), 100 to 1000 nM.

On to `C[C@H](Nc1ncnc2cccnc12)c1cc2cccc(C(F)(F)F)c2c(=O)n1-c1ccccc1`, for which the IC50 on PIK3CD (Human) was under 100 nM; on PIK3CG (human), under 100 nM; on PIK3CB (Human), 100 to 1000 nM.

As for `C[C@H](Nc1ncnn2ccnc12)c1cc2cccc(C(F)(F)F)c2c(=O)n1-c1ccccc1`, the values for the IC50 against PIK3CD (Human), against PIK3CG (human) and at PIK3CB (Human) were under 100 nM, under 100 nM and 100 to 1000 nM, respectively.

As to `C[C@H](Nc1ncnc2cccnc12)c1cc2cccc(-c3ccc(N)nc3)c2c(=O)n1-c1ccccc1`, the IC50 against PIK3CD (Human) is under 100 nM; against PIK3CG (human) it was under 100 nM; at PIK3CB (Human), over 10000 nM.

Take `C[C@H](Nc1ncnc2cccnc12)c1cc2cccc(-c3cnn(C)c3)c2c(=O)n1-c1cccc(F)c1`: the IC50 at PIK3CD (Human) was under 100 nM; at PIK3CG (human) it was under 100 nM; against PIK3CB (Human), over 10000 nM.

Consider `C[C@H](Nc1ccnn2ccnc12)c1cc2cccc(-c3cnn(C)c3)c2c(=O)n1-c1cccc(F)c1`, for which the IC50 at PIK3CD (Human) was under 100 nM; at PIK3CG (human), under 100 nM; on PIK3CB (Human), over 10000 nM.

Regarding `C[C@H](Nc1ncnc2cccnc12)c1cc2cccc(C(F)(F)F)c2c(=O)n1-c1cccc(F)c1`, the IC50 against PIK3CD (Human) and against PIK3CG (human) was under 100 nM throughout.

Take `C[C@H](Nc1ncnc2[nH]cc(F)c12)c1cc2cccc(C(F)(F)F)c2c(=O)n1-c1ccccc1`: the IC50 against PIK3CD (Human) and at PIK3CG (human) was under 100 nM in each case.

For `C[C@H](Nc1ccnc2cccnc12)c1cc2cccc(-c3cnn(C)c3)c2c(=O)n1-c1ccccc1`, the IC50 against PIK3CD (Human) and on PIK3CG (human) was under 100 nM throughout.

As to `C[C@H](Nc1ccnn2ccnc12)c1cc2cccc(-c3cnn(C)c3)c2c(=O)n1-c1ccccc1`, the IC50 at PIK3CD (Human) and on PIK3CG (human) was under 100 nM throughout.

`C[C@H](Nc1ncnc2cccnc12)c1cc2scc(Cl)c2c(=O)n1-c1ccccc1`: the concentration for half-maximal inhibition (IC50) against PIK3CD (Human) was under 100 nM; against PIK3CG (human) it was under 100 nM; at PIK3CB (Human), 100 to 1000 nM.

`C[C@H](Nc1ccnc2cccnc12)c1cc2cccc(Cl)c2c(=O)n1-c1cccc(F)c1`: the IC50 at PIK3CD (Human) and against PIK3CG (human) was under 100 nM throughout.

For the compound `C[C@H](Nc1ncnc2[nH]cc(C(N)=O)c12)c1cc2cccc(C(F)(F)F)c2c(=O)n1-c1ccccc1`, the results for the IC50 at PIK3CD (Human), against PIK3CG (human) and against PIK3CB (Human) were under 100 nM, under 100 nM and 100 to 1000 nM, respectively.

Turning to `Cc1ncc(-c2cccc3cc([C@H](C)Nc4nc(N)nc5cccnc45)n(-c4cccc(F)c4)c(=O)c23)cn1`, the results for the IC50 against PIK3CD (Human), against PIK3CG (human) and against PIK3CB (Human) were under 100 nM, under 100 nM and over 10000 nM, respectively.

Consider `Cc1nn(C)cc1-c1cccc2cc([C@H](C)Nc3ncnc4cccnc34)n(-c3ccccc3)c(=O)c12`, for which the IC50 was under 100 nM against PIK3CD (Human), under 100 nM at PIK3CG (human) and over 10000 nM on PIK3CB (Human).

Take `C[C@H](Nc1nc(N)nc2[nH]cnc12)c1cc2cccc(C(F)(F)F)c2c(=O)n1-c1cccc(F)c1`: the half-inhibitory concentration (IC50) is under 100 nM on PIK3CD (Human), under 100 nM at PIK3CG (human) and 100 to 1000 nM on PIK3CB (Human).

With `Cc1cccc2cc([C@H](C)Nc3ncnc4cccnc34)n(-c3cccc(F)c3)c(=O)c12`, the IC50 on PIK3CD (Human) and against PIK3CG (human) was under 100 nM throughout.

For `C[C@H](Nc1ncnc2cccnc12)c1cc2c(F)cccc2c(=O)n1-c1ccccc1`, the IC50 on PIK3CD (Human) and on PIK3CG (human) was under 100 nM throughout.

These data come from the Kinase Knowledgebase extract (Sharma et al. 2016).
